# Measurements from patent publication WO2005063245A1, “Composition for lowering blood pressure” (priority 2003, dated 2005).
# Like-named read-outs stand apart in the source and are kept apart here.
# Key:
# [1] = Blood pressure lowering effect of samples (31)-(38) in SHR rats, same manner as Test example 6 (Table 11); type: in vivo, rat; conditions: oral
# [2] = Test example 6: test of blood pressure lowering effect using SHR rats, samples (16)-(30) (Table 9); type: in vivo, rat; conditions: oral, mean ± SE, dose mg/kg: 17: 500, 18: 1.5, 19: 3.0, 20, 21, 24, 26, 27, 28, 30: 50, 22, 23: 20, 25, 29: 100
# [3] = Oral administration experiment with SHR rats (summary statement); type: in vivo, rat
# [4] = rats, intraperitoneal; Non-Patent Documents 5 and 6; cited from earlier work
# [5] = Non-Patent Document 4; cited from earlier work
# [6] = n=5, 2 h after administration, mean ± SE, dose mg/kg: 32, 33, 35, 36, 37: 20, 34: 23.4, 38: 32.4
# [7] = n=5, column after 4 h, time not printed in this copy (line cut), dose mg/kg: 32, 33, 35, 36, 37: 20, 34: 23.4, 38: 32.4
# [8] = n=5, 0 h (before administration), mean ± SE, dose mg/kg: 32, 33, 35, 36, 37: 20, 34: 23.4, 38: 32.4
# [9] = n=5, 4 h after administration, mean ± SE, dose mg/kg: 32, 33, 35, 36, 37: 20, 34: 23.4, 38: 32.4
Molecule,"systolic blood pressure [1, 6]","systolic blood pressure [1, 7]","blood pressure during systole and diastole ([3]; SHR rats, oral administration)","systolic blood pressure [1, 8]","systolic blood pressure [1, 9]","effect on heart rate ([3]; SHR rats, oral administration)",also measured
"N[C@@H](CCC(=O)[O-])C(=O)[O-].[Na+].[Na+] [Sample 25, Sodium glutamate]",165±2.,177,,,,,
bovine serum albumin [Sample 17],,,,,,,"systolic blood pressure ([2]; n=5, 0 h (before administration)): 186 + 2.2 mmH; systolic blood pressure ([2]; n=5, 2 h after administration): 169 + 1.8 mmH; systolic blood pressure ([2]; n=5, 4 h after administration): 170 ± 0.5 mmH"
"CC(C)C[C@H](N)C(=O)O [Sample 21, Leucine]",162±1.0,174,significantly reduce blood pressure during systole and diastole,189±1.7,162±2.7,,"effect on heart rate ([3]; rat, in vivo, po): without affecting the heart rate"
"CC[C@H](C)[C@H](N)C(=O)O [Sample 20, Isoleucine]",163±2.5,180,significantly reduce blood pressure during systole and diastole,,162+2.6,without affecting the heart rate,
"N[C@@H](Cc1ccccc1)C(=O)O [Sample 37, phenylalanine]",,175,significantly reduce blood pressure during systole and diastole,191±1.5,165±1.7,without affecting the heart rate,
"N[C@@H](CO)C(=O)O [Sample 36, Serine]",164±1.4,172,significantly reduce blood pressure during systole and diastole,,158±3.7,,"effect on heart rate ([3]; rat, in vivo, po): without affecting the heart rate; systolic blood pressure ([1]; n=5, 0 h (before administration), mean ± SE, dose mg/kg: 32, 33, 35, 36, 37: 20, 34: 23.4, 38: 32.4, in mmHg): 190+2.0"
"N[C@@H](Cc1ccc(O)cc1)C(=O)O [Sample 38, Tyrosine, reference compound]",161 ±1.8,169,,189±1.7,159±1.1,,blood pressure lowering effect [4]: blood pressure lowering effect
"N[C@@H](Cc1c[nH]cn1)C(=O)O [Sample 23, Histidine]",152+3.3,171,significantly reduce blood pressure during systole and diastole,186+1.7,157±1.6,without affecting the heart rate,
N[C@@H](Cc1c[nH]c2ccccc12)C(=O)O [L-tributophan],,,,,,,blood pressure lowering effect [4]: blood pressure lowering effect
N[C@@H](CCC(=O)O)C(=O)O [glutamic acid],,,significantly reduce blood pressure during systole and diastole,,,without affecting the heart rate,
"N=C(N)NCCC[C@H](N)C(=O)O [Sample 22, Arginine]",,,,,,,blood pressure lowering effect [5]: blood pressure lowering effect in systole and diastole; heart rate [5]: increase in heart rate
